What was measured:
purple nutsedge = assay: Test B preemergence/postemergence greenhouse plant response rating 0 to 10; assay type: in vivo, Cyperus rotundus; details: 0 to 10 scale
Outline: (§1)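 Planted seeds are treated preemergence with compound dissolved in a non-phytotoxic solvent, while postemergence applications go onto plants of two to eighteen cm. Plants stay in the greenhouse twelve to sixteen days and are then rated visually relative to controls.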

morningglory = assay: Test C preemergence/postemergence greenhouse plant response rating 0 to 100; assay type: in vivo, Ipomoea hederacea; details: for Plant response rating, Morningglory: 62 g/ha, 0 to 100 scale
Outline: (§2)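 Compounds in non-phytotoxic solvent went onto sandy loam before emergence (seeded one day earlier) or onto plants at the one-to-four leaf stage. Duck salad was treated via flood water (~2.5 cm, maintained) over silt loam.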

ryegrass = assay: as above; assay type: in vivo, Lolium multiflorum; details: for Plant response rating Ryegrass: 62 g/ha, 0 to 100 scale
Outline: as §2

rice = assay: Test C flood test plant response rating 0 to 100; assay type: in vivo, Oryza sativa
Outline: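 Compounds in non-phytotoxic solvent applied preemergence to sandy loam one day after planting, postemergence at the 1–4 leaf stage, or to ~2.5 cm floodwater over silt loam.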

rape = assay: Test C preemergence/postemergence greenhouse plant response rating 0 to 100; assay type: in vivo, Brassica napus; details: for Plant response rating, Rape: 62 g/ha, 0 to 100 scale
Outline: as §2

bedstraw = assay: as above; assay type: in vivo, Galium aparine; details: for Plant response rating, Bedstraw: 62 g/ha, 0 to 100 scale
Outline: as §2

barnyardgrass = assay: Test B preemergence/postemergence greenhouse plant response rating 0 to 10; assay type: in vivo, Echinochloa crus-galli; details: 0 to 10 scale
Outline: as §1

sorghum = assay: as above; assay type: in vivo, Sorghum bicolor; details: 0 to 10 scale
Outline: as §1

chickweed = assay: as above; assay type: in vivo, Stellaria media; details: 0 to 10 scale
Outline: as §1

blackgrass = assay: as above; assay type: in vivo, Alopecurus myosuroides; details: 0 to 10 scale
Outline: as §1

crabgrass = assay: Test C preemergence/postemergence greenhouse plant response rating 0 to 100; assay type: in vivo, Digitaria sanguinalis; details: for Plant response rating, Crabgrass: 62 g/ha, 0 to 100 scale
Outline: as §2

wild oat = assay: as above; assay type: in vivo, Avena fatua
Outline: as §2

corn [1] = assay: Test B preemergence/postemergence greenhouse plant response rating 0 to 10; assay type: in vivo, Zea mays; details: 0 to 10 scale
Outline: as §1

corn [2] = assay: Test C preemergence/postemergence greenhouse plant response rating 0 to 100; assay type: in vivo, Zea mays; details: for Plant response rating, Corn: 62 g/ha, 0 to 100 scale
Outline: as §2

barley = assay: Test B preemergence/postemergence greenhouse plant response rating 0 to 10; assay type: in vivo, Hordeum vulgare; details: 0 to 10 scale
Outline: as §1

wheat = assay: Test C preemergence/postemergence greenhouse plant response rating 0 to 100; assay type: in vivo, Triticum aestivum
Outline: as §2

velvetleaf = assay: Test B preemergence/postemergence greenhouse plant response rating 0 to 10; assay type: in vivo, Abutilon theophrasti; details: 0 to 10 scale
Outline: as §1

sugar beet = assay: as above; assay type: in vivo, Beta vulgaris; details: 0 to 10 scale
Outline: as §1

[3] = POSTEMERGENCE, 62 g/ha, 0 to 100 scale

CC(C)Oc1cc(-c2nn3c(c2Br)CCCC3)c(F)cc1Cl [Compound 38]
5: Plant response rating, Sorghum (sorghum; POSTEMERGENCE, Rate 50 g/ha) | Plant response rating, Corn (corn [1]; POSTEMERGENCE, Rate 200 g/ha)
9: Plant response rating, Chickweed (chickweed; POSTEMERGENCE, Rate 50 g/ha)
4: Plant response rating, Nutsedge (purple nutsedge; Rate 200 g/ha, POSTEMERGENCE) | Plant response rating, Corn (corn [1]; POSTEMERGENCE, Rate 50 g/ha) | Plant response rating, Barley (barley; POSTEMERGENCE, Rate 50 g/ha)
30: Plant response rating (0 to 100), Morningglory (morningglory; POSTEMERGENCE, Rate 4 g/ha) | Plant response rating (0 to 100), Ryegrass (ryegrass; Rate 16 g/ha, POSTEMERGENCE) | Plant response rating Rice Japonica (rice; flood test species listed under POSTEMERGENCE, 62 g/ha, 0 to 100 scale) | Plant response rating (0 to 100), Rape (rape; POSTEMERGENCE, Rate 4 g/ha) | Plant response rating, Rape (rape; PREEMERGENCE) | Plant response rating, Crabgrass (crabgrass; PREEMERGENCE) | Plant response rating (0 to 100), Crabgrass (crabgrass; Rate 16 g/ha, POSTEMERGENCE) | Plant response rating (0 to 100), Wild oat (wild oat; Rate 16 g/ha, POSTEMERGENCE) | Plant response rating (0 to 100), Wheat (wheat; Rate 16 g/ha, POSTEMERGENCE)
40: Plant response rating (0 to 100), Rape (rape; Rate 16 g/ha, POSTEMERGENCE) | Plant response rating, Crabgrass (crabgrass; POSTEMERGENCE) | Plant response rating (0 to 100), Corn (corn [2]; Rate 16 g/ha, POSTEMERGENCE)
80: Plant response rating, Rape (rape; POSTEMERGENCE)
95: Plant response rating, Morningglory (morningglory; POSTEMERGENCE) | Plant response rating (0 to 100), Morningglory (morningglory; Rate 16 g/ha, POSTEMERGENCE)
8: Plant response rating, Barnyardgrass (barnyardgrass; POSTEMERGENCE, Rate 200 g/ha) | Plant response rating, Sugar beet (sugar beet; PREEMERGENCE, Rate 50 g/ha)
90: Plant response rating, Bedstraw (bedstraw; POSTEMERGENCE)
7: Plant response rating, Blackgrass (blackgrass; POSTEMERGENCE, Rate 200 g/ha) | Plant response rating, Velvetleaf (velvetleaf; Rate 200 g/ha, PREEMERGENCE)
20: Plant response rating (0 to 100), Morningglory (morningglory; POSTEMERGENCE, Rate 1 g/ha) | Plant response rating, Morningglory (morningglory; PREEMERGENCE) | Plant response rating (0 to 100), Rape (rape; POSTEMERGENCE, Rate 1 g/ha) | Plant response rating (0 to 100), Rape (rape; Rate 16 g/ha, PREEMERGENCE) | Plant response rating (0 to 100), Bedstraw (bedstraw; POSTEMERGENCE, Rate 1 g/ha) | Plant response rating (0 to 100), Bedstraw (bedstraw; Rate 16 g/ha, PREEMERGENCE) | Plant response rating (0 to 100), Crabgrass (crabgrass; POSTEMERGENCE, Rate 4 g/ha) | Plant response rating (0 to 100), Corn (corn [2]; Rate 4 g/ha, POSTEMERGENCE) | Plant response rating (0 to 100), Wheat (wheat; POSTEMERGENCE, Rate 4 g/ha)
3: Plant response rating, Nutsedge (purple nutsedge; POSTEMERGENCE, Rate 50 g/ha) | Plant response rating, Blackgrass (blackgrass; POSTEMERGENCE, Rate 50 g/ha)
2: Plant response rating, Corn (corn [1]; Rate 200 g/ha, PREEMERGENCE)
6: Plant response rating, Barnyardgrass (barnyardgrass; POSTEMERGENCE, Rate 50 g/ha) | Plant response rating, Sorghum (sorghum; Rate 200 g/ha, POSTEMERGENCE) | Plant response rating, Barley (barley; POSTEMERGENCE, Rate 200 g/ha) | Plant response rating, Velvetleaf (velvetleaf; POSTEMERGENCE, Rate 50 g/ha)
0: Plant response rating, Nutsedge (purple nutsedge; PREEMERGENCE, Rate 50 g/ha) | Plant response rating, Nutsedge (purple nutsedge; Rate 200 g/ha, PREEMERGENCE) | Plant response rating (0 to 100), Morningglory (morningglory; PREEMERGENCE, Rate 1 g/ha) | Plant response rating (0 to 100), Morningglory (morningglory; PREEMERGENCE, Rate 4 g/ha) | Plant response rating (0 to 100), Morningglory (morningglory; Rate 16 g/ha, PREEMERGENCE) | Plant response rating (0 to 100), Ryegrass (ryegrass; POSTEMERGENCE, Rate 1 g/ha) | Plant response rating Ryegrass (ryegrass; PREEMERGENCE) | Plant response rating (0 to 100), Ryegrass (ryegrass; PREEMERGENCE, Rate 1 g/ha) | Plant response rating (0 to 100), Ryegrass (ryegrass; PREEMERGENCE, Rate 4 g/ha) | Plant response rating (0 to 100), Ryegrass (ryegrass; Rate 16 g/ha, PREEMERGENCE) | Plant response rating (0 to 100), Rice Japonica (rice; POSTEMERGENCE section, flood test, Rate 1 g/ha) | Plant response rating (0 to 100), Rape (rape; PREEMERGENCE, Rate 1 g/ha) | Plant response rating (0 to 100), Bedstraw (bedstraw; PREEMERGENCE, Rate 1 g/ha) | Plant response rating (0 to 100), Bedstraw (bedstraw; PREEMERGENCE, Rate 4 g/ha) | Plant response rating, Barnyardgrass (barnyardgrass; PREEMERGENCE, Rate 50 g/ha) | Plant response rating, Sorghum (sorghum; PREEMERGENCE, Rate 50 g/ha) | Plant response rating, Chickweed (chickweed; PREEMERGENCE, Rate 50 g/ha) | Plant response rating, Chickweed (chickweed; Rate 200 g/ha, PREEMERGENCE) | Plant response rating (0 to 100), Crabgrass (crabgrass; PREEMERGENCE, Rate 1 g/ha) | Plant response rating (0 to 100), Crabgrass (crabgrass; PREEMERGENCE, Rate 4 g/ha) | Plant response rating (0 to 100), Wild oat (wild oat; POSTEMERGENCE, Rate 1 g/ha) | Plant response rating (0 to 100), Wild oat (wild oat; PREEMERGENCE, Rate 1 g/ha) | Plant response rating (0 to 100), Wild oat (wild oat; PREEMERGENCE, Rate 4 g/ha) | Plant response rating (0 to 100), Wild oat (wild oat; Rate 16 g/ha, PREEMERGENCE) | Plant response rating, Corn (corn [1]; PREEMERGENCE, Rate 50 g/ha) | Plant response rating, Corn (corn [2]; PREEMERGENCE) | Plant response rating (0 to 100), Corn (corn [2]; PREEMERGENCE, Rate 1 g/ha) | Plant response rating (0 to 100), Corn (corn [2]; PREEMERGENCE, Rate 4 g/ha) | Plant response rating (0 to 100), Corn (corn [2]; Rate 16 g/ha, PREEMERGENCE) | Plant response rating, Barley (barley; PREEMERGENCE, Rate 50 g/ha) | Plant response rating (0 to 100), Wheat (wheat; POSTEMERGENCE, Rate 1 g/ha) | Plant response rating (0 to 100), Wheat (wheat; PREEMERGENCE, Rate 1 g/ha) | Plant response rating (0 to 100), Wheat (wheat; PREEMERGENCE, Rate 4 g/ha) | Plant response rating (0 to 100), Wheat (wheat; Rate 16 g/ha, PREEMERGENCE) | Plant response rating, Velvetleaf (velvetleaf; PREEMERGENCE, Rate 50 g/ha)
1: Plant response rating, Barnyardgrass (barnyardgrass; Rate 200 g/ha, PREEMERGENCE) | Plant response rating, Sorghum (sorghum; Rate 200 g/ha, PREEMERGENCE) | Plant response rating, Blackgrass (blackgrass; PREEMERGENCE, Rate 50 g/ha) | Plant response rating, Blackgrass (blackgrass; Rate 200 g/ha, PREEMERGENCE) | Plant response rating, Barley (barley; Rate 200 g/ha, PREEMERGENCE)
10: Plant response rating (0 to 100), Ryegrass (ryegrass; POSTEMERGENCE, Rate 4 g/ha) | Plant response rating (0 to 100), Rice Japonica (rice; POSTEMERGENCE section, flood test, Rate 4 g/ha) | Plant response rating (0 to 100), Rice Japonica (rice; Rate 16 g/ha, under POSTEMERGENCE head (flood test species)) | Plant response rating (0 to 100), Rape (rape; PREEMERGENCE, Rate 4 g/ha) | Plant response rating, Chickweed (chickweed; POSTEMERGENCE, Rate 200 g/ha) | Plant response rating (0 to 100), Crabgrass (crabgrass; POSTEMERGENCE, Rate 1 g/ha) | Plant response rating (0 to 100), Crabgrass (crabgrass; Rate 16 g/ha, PREEMERGENCE) | Plant response rating (0 to 100), Wild oat (wild oat; POSTEMERGENCE, Rate 4 g/ha) | Plant response rating (0 to 100), Corn (corn [2]; POSTEMERGENCE, Rate 1 g/ha) | Plant response rating, Velvetleaf (velvetleaf; Rate 200 g/ha, POSTEMERGENCE) | Plant response rating, Sugar beet (sugar beet; POSTEMERGENCE, Rate 50 g/ha) | Plant response rating, Sugar beet (sugar beet; Rate 200 g/ha, POSTEMERGENCE) | Plant response rating, Sugar beet (sugar beet; Rate 200 g/ha, PREEMERGENCE)
50: Plant response rating Ryegrass (ryegrass; POSTEMERGENCE) | Plant response rating, Bedstraw (bedstraw; PREEMERGENCE) | Plant response rating (0 to 100), Bedstraw (bedstraw; Rate 4 g/ha, POSTEMERGENCE) | Plant response rating (0 to 100), Bedstraw (bedstraw; Rate 16 g/ha, POSTEMERGENCE) | Plant response rating, Wild oat (wild oat; [3]) | Plant response rating, Corn (corn [2]; POSTEMERGENCE) | Plant response rating, Wheat (wheat; [3])

From patent publication US6358885B1, “Substituted phenylheterocyclic herbicides” (Mississippi State University, priority 1992, dated 2002)
